Experimental data from patent US9963434B2, “N-arylmethyl sulfonamide negative modulators of NR2A” (LUC THERAPEUTICS, priority 2013, dated 2018).
Like-named read-outs stand apart in the source and are kept apart here.

Target: NR1/NR2A (Homo sapiens (Human), UniProt Q05586+Q12879)
Test: FDSS Ca2+ influx inhibition assay in HEK293 cells expressing NR1/NR2A
Assay type: cell-based
Conditions: 3 μM glutamate, 3 μM glycine, 1 mM Ca2+
Procedure: Cell Culture and plating: HEK293 cells expressing NR1/NR2A (Chantest, Cleveland, Ohio) were grown to 70-80% confluency as an adherent monolayer in standard tissue culture flasks at 37° C., 5% CO2 per supplier's instructions.
After induction, cell culture medium was removed and cells were rinsed once with Ca^2+ and Mg^2+-free Dulbecco's phosphate buffered saline. Cells were then removed from the flask using TrypLE™ Express (Life Technologies) according to the manufacturer's instructions and collected to 50 ml centrifuge tubes. Following two washes in Ca^2+/Mg^2+-free HBSS with 20 mM HEPES (HHnoCa), cells were counted and viability assessed using trypan blue. To load cells with Ca^2+-sensitive dye, they were resuspended in fluo-8 plus Component B (AAT Bioquest Products) diluted in HHnoCa and incubated 15 minutes at 37° C., followed by 30 minutes at room temp (in dark). Cells were then washed and resuspended in HHnoCa to remove extracellular dye and plated in 384-well plates (Falcon, uncoated) at 20,000-30,000 cells/well in a final volume of 25 μL/well.
FDSS Assay: To each well of the plate, 10 μL test compound, control (MK801) or HHnoCa buffer was added to a final concentration of 10 μM with a final concentration of DMSO of 0.1%. Following 10 minutes pre-incubation in the dark, plates are loaded onto the Hamamatsu FDSS 6000. After collecting baseline fluorescence images, 3 μM glutamate, 3 μM glycine, and 1 mM Ca^2+ in HHnoCa buffer is added to each well, and Ca^2+ is recorded for 3 minutes. Data were processed by computing ratio of fluorescence at the end of data collection to baseline fluorescence to assess degree of Ca^2+ influx inhibition relative to that observed in MK801.

[1] = inhibition relative to MK801, read-out: NR2A IC50

Chain of NR1/NR2A (Q12879 23-1464, other chains not shown): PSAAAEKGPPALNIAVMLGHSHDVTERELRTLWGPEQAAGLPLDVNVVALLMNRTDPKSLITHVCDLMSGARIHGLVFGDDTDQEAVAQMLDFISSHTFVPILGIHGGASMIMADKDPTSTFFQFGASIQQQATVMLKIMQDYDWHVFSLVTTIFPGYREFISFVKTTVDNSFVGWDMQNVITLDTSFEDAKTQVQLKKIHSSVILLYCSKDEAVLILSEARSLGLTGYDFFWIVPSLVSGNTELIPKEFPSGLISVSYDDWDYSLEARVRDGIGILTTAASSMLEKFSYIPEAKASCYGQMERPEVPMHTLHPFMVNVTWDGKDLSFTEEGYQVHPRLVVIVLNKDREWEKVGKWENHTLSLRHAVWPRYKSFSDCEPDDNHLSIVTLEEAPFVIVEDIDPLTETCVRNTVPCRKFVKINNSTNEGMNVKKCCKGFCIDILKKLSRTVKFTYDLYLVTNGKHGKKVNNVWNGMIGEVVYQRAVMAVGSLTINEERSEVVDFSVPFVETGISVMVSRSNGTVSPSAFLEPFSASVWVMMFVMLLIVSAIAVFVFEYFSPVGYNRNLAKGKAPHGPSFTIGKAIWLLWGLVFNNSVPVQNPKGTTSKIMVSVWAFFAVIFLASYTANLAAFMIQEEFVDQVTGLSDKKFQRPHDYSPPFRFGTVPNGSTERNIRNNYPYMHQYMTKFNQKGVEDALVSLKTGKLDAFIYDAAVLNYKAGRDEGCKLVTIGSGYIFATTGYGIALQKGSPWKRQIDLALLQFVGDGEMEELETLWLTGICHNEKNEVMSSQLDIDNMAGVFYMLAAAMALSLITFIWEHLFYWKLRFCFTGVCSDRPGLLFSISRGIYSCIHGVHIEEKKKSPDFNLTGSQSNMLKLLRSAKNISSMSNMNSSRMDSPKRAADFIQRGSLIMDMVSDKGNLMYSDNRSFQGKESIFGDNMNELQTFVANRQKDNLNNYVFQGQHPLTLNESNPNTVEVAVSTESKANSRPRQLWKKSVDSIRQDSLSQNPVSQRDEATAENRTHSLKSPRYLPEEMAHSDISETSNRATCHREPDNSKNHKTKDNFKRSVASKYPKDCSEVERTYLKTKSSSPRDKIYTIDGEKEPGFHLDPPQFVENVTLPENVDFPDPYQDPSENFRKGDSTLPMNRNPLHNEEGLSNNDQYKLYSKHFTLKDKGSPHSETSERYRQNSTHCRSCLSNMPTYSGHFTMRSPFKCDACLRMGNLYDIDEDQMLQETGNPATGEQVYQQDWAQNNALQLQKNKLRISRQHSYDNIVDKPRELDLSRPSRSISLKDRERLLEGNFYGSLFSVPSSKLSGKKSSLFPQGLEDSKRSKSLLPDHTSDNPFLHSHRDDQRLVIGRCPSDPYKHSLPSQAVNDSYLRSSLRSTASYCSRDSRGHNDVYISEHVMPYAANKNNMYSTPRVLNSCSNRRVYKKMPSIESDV

Row | Compound | IC50 (read-out: Binned Activity) | IC50 [1]
1 | Cn1cncc1CNC(=O)c1ccc(CNS(=O)(=O)c2ccc(F)c(Cl)c2)cn1 [5-(3-chloro-4-fluorobenzenesulfon-amidomethyl)-N-[(1-methyl-1H-imidazol-5-yl)methyl]pyridine-2-carboxamide] | 1 to 10 µM | 
2 | Cn1cc(CNC(=O)c2ccc(CNS(=O)(=O)c3ccc(F)c(Cl)c3)cn2)cn1 [5-(3-chloro-4-fluorobenzenesulfon-amidomethyl)-N-[(1-methyl-1H-pyrazol-4-yl)methyl]pyridine-2-carboxamide] | 1 to 10 µM | 
3 | Cn1nccc1CNC(=O)c1cnc(CNS(=O)(=O)c2ccc(F)c(Cl)c2)cn1 [5-(3-chloro-4-fluorobenzenesulfon-amidomethyl)-N-[(1-methyl-1H-pyrazol-5-yl)methyl]pyrazine-2-carboxamide] | > 10 µM | 10 µM
4 | Cn1nccc1CNC(=O)c1ccc(CNS(=O)(=O)c2ccc(F)c(Cl)c2)cn1 [5-(3-chloro-4-fluorobenzenesulfon-amidomethyl)-N-[(1-methyl-1H-pyrazol-5-yl)methyl]pyridine-2-carboxamide] | > 10 µM | 10 µM
5 | Cn1cccc1CNC(=O)c1cnc(CNS(=O)(=O)c2ccc(F)c(Cl)c2)cn1 [5-(3-chloro-4-fluorobenzenesulfon-amidomethyl)-N-[(1-methyl-1H-pyrrol-2-yl)methyl]pyrazine-2-carboxamide] | 1 to 10 µM | 
6 | Cn1cccc1CNC(=O)c1ccc(CNS(=O)(=O)c2ccc(F)c(Cl)c2)cn1 [5-(3-chloro-4-fluorobenzenesulfon-amidomethyl)-N-[(1-methyl-1H-pyrrol-2-yl)methyl]pyridine-2-carboxamide] | 1 to 10 µM | 
7 | C[C@@H](NC(=O)c1cnc(CNS(=O)(=O)c2ccc(F)c(Cl)c2)cn1)c1cncs1 [5-(3-chloro-4-fluorobenzenesulfon-amidomethyl)-N-[(1R)-1-(1,3-thiazol-5-yl)ethyl]pyrazine-2-carboxamide] | > 10 µM | 
8 | C[C@@H](NC(=O)c1ccc(CNS(=O)(=O)c2ccc(F)c(Cl)c2)cn1)c1cncs1 [5-(3-chloro-4-fluorobenzenesulfon-amidomethyl)-N-[(1R)-1-(1,3-thiazol-5-yl)ethyl]pyridine-2-carboxamide] | > 10 µM | 10 µM
9 | COc1cc(CNC(=O)c2cnc(CNS(=O)(=O)c3ccc(F)c(Cl)c3)cn2)ccn1 [5-(3-chloro-4-fluorobenzenesulfon-amidomethyl)-N-[(2-methoxypyridin-4-yl)methyl]pyrazine-2-carboxamide] | 0.1 to 1 µM | 
10 | COc1cc(CNC(=O)c2ccc(CNS(=O)(=O)c3ccc(F)c(Cl)c3)cn2)ccn1 [5-(3-chloro-4-fluorobenzenesulfon-amidomethyl)-N-[(2-methoxypyridin-4-yl)methyl]pyridine-2-carboxamide] | 1 to 10 µM | 
11 | Cc1nc(CNC(=O)c2cnc(CNS(=O)(=O)c3ccc(F)c(Cl)c3)cn2)cs1 [5-(3-chloro-4-fluorobenzenesulfon-amidomethyl)-N-[(2-methyl-1,3-thiazol-4-yl)methyl]pyrazine-2-carboxamide] | > 10 µM | 10 µM
12 | Cc1nc(CNC(=O)c2ccc(CNS(=O)(=O)c3ccc(F)c(Cl)c3)cn2)cs1 [5-(3-chloro-4-fluorobenzenesulfon-amidomethyl)-N-[(2-methyl-1,3-thiazol-4-yl)methyl]pyridine-2-carboxamide] | > 10 µM | 10 µM
13 | Cc1ncc(CNC(=O)c2cnc(CNS(=O)(=O)c3ccc(F)c(Cl)c3)c(C(F)(F)F)n2)s1 [5-(3-chloro-4-fluorobenzenesulfon-amidomethyl)-N-[(2-methyl-1,3-thiazol-5-yl)methyl]-6-(trifluoromethyl)pyrazine-2-carboxamide] | 0.1 to 1 µM | 
14 | Cc1ncc(CNC(=O)c2ccc(CNS(=O)(=O)c3ccc(F)c(Cl)c3)cn2)s1 [5-(3-chloro-4-fluorobenzenesulfon-amidomethyl)-N-[(2-methyl-1,3-thiazol-5-yl)methyl]pyridine-2-carboxamide] | 0.1 to 1 µM | 
15 | Cc1ncc(CNC(=O)c2ncc(CNS(=O)(=O)c3ccc(F)c(Cl)c3)cn2)s1 [5-(3-chloro-4-fluorobenzenesulfon-amidomethyl)-N-[(2-methyl-1,3-thiazol-5-yl)methyl]pyrimidine-2-carboxamide] | > 10 µM | 10 µM
16 | COc1ccc(CNC(=O)c2cnc(CNS(=O)(=O)c3ccc(F)c(Cl)c3)cn2)cc1 [5-(3-chloro-4-fluorobenzenesulfon-amidomethyl)-N-[(4-methoxyphenyl)methyl] pyrazine-2-carboxamide] | > 10 µM | 10 µM

Row | Compound | IC50 (read-out: Binned Activity) | IC50 [1]
17 | COc1ccc(CNC(=O)c2ccc(CNS(=O)(=O)c3ccc(F)c(Cl)c3)cn2)cc1 [5-(3-chloro-4-fluorobenzenesulfon-amidomethyl)-N-[(4-methoxyphenyl)methyl] pyridine-2-carboxamide] | > 10 µM | 10 µM
18 | Cc1csc(CNC(=O)c2cnc(CNS(=O)(=O)c3ccc(F)c(Cl)c3)cn2)n1 [5-(3-chloro-4-fluorobenzenesulfon-amidomethyl)-N-[(4-methyl-1,3-thiazol-2-yl)methyl]pyrazine-2-carboxamide] |  | 10 µM
19 | Cc1csc(CNC(=O)c2ccc(CNS(=O)(=O)c3ccc(F)c(Cl)c3)cn2)n1 [5-(3-chloro-4-fluorobenzenesulfon-amidomethyl)-N-[(4-methyl-1,3-thiazol-2-yl)methyl]pyridine-2-carboxamide] | > 10 µM | 10 µM
20 | Cc1ncsc1CNC(=O)c1cnc(CNS(=O)(=O)c2ccc(F)c(Cl)c2)cn1 [5-(3-chloro-4-fluorobenzenesulfon-amidomethyl)-N-[(4-methyl-1,3-thiazol-5-yl)methyl]pyrazine-2-carboxamide] | > 10 µM | 10 µM
21 | Cc1ncsc1CNC(=O)c1ccc(CNS(=O)(=O)c2ccc(F)c(Cl)c2)cn1 [5-(3-chloro-4-fluorobenzenesulfon-amidomethyl)-N-[(4-methyl-1,3-thiazol-5-yl)methyl]pyridine-2-carboxamide] | > 10 µM | 10 µM
22 | Cc1ccncc1CNC(=O)c1cnc(CNS(=O)(=O)c2ccc(F)c(Cl)c2)cn1 [5-(3-chloro-4-fluorobenzenesulfon-amidomethyl)-N-[(4-methylpyridin-3-yl)methyl]pyrazine-2-carboxamide] | 0.1 to 1 µM | 
23 | Cc1ccncc1CNC(=O)c1ccc(CNS(=O)(=O)c2ccc(F)c(Cl)c2)cn1 [5-(3-chloro-4-fluorobenzenesulfon-amidomethyl)-N-[(4-methylpyridin-3-yl)methyl]pyridine-2-carboxamide] | 0.1 to 1 µM | 
24 | O=C(NCc1cncc(F)c1)c1cnc(CNS(=O)(=O)c2ccc(F)c(Cl)c2)cn1 [5-(3-chloro-4-fluorobenzenesulfon-amidomethyl)-N-[(5-fluoropyridin-3-yl)methyl]pyrazine-2-carboxamide] | 1 to 10 µM | 
25 | Cc1nnc(CNC(=O)c2cnc(CNS(=O)(=O)c3ccc(F)c(Cl)c3)cn2)o1 [5-(3-chloro-4-fluorobenzenesulfon-amidomethyl)-N-[(5-methyl-1,3,4-oxadiazol-2-yl)methyl]pyrazine-2-carboxamide] | 1 to 10 µM | 
26 | Cc1nnc(CNC(=O)c2ccc(CNS(=O)(=O)c3ccc(F)c(Cl)c3)cn2)o1 [5-(3-chloro-4-fluorobenzenesulfon-amidomethyl)-N-[(5-methyl-1,3,4-oxadiazol-2-yl)methyl]pyridine-2-carboxamide] | 1 to 10 µM | 
27 | Cc1nnc(CNC(=O)c2cnc(CNS(=O)(=O)c3ccc(F)c(Cl)c3)cn2)s1 [5-(3-chloro-4-fluorobenzenesulfon-amidomethyl)-N-[(5-methyl-1,3,4-thiadiazol-2-yl)methyl]pyrazine-2-carboxamide] | 0.1 to 1 µM | 
28 | Cc1nnc(CNC(=O)c2ccc(CNS(=O)(=O)c3ccc(F)c(Cl)c3)cn2)s1 [5-(3-chloro-4-fluorobenzenesulfon-amidomethyl)-N-[(5-methyl-1,3,4-thiadiazol-2-yl)methyl]pyridine-2-carboxamide] | 1 to 10 µM | 
29 | Cc1cnc(CNC(=O)c2cnc(CNS(=O)(=O)c3ccc(F)c(Cl)c3)cn2)cn1 [5-(3-chloro-4-fluorobenzenesulfon-amidomethyl)-N-[(5-methylpyrazin-2-yl)methyl]pyrazine-2-carboxamide] | 1 to 10 µM | 
30 | Cc1ccc(CNC(=O)c2cnc(CNS(=O)(=O)c3ccc(F)c(Cl)c3)cn2)s1 [5-(3-chloro-4-fluorobenzenesulfon-amidomethyl)-N-[(5-methylthiophen-2-yl)methyl]pyrazine-2-carboxamide] | > 10 µM | 10 µM
31 | Cc1ccc(CNC(=O)c2ccc(CNS(=O)(=O)c3ccc(F)c(Cl)c3)cn2)s1 [5-(3-chloro-4-fluorobenzenesulfon-amidomethyl)-N-[(5-methylthiophen-2-yl)methyl]pyridine-2-carboxamide] | > 10 µM | 10 µM
32 | COc1ccc(CNC(=O)c2cnc(CNS(=O)(=O)c3ccc(F)c(Cl)c3)cn2)cn1 [5-(3-chloro-4-fluorobenzenesulfon-amidomethyl)-N-[(6-methoxypyridin-3-yl)methyl]pyrazine-2-carboxamide] | > 10 µM | 10 µM
